Laboratory results published in paper PMC10706087, “The Subtype Selectivity in Search of Potent Hypotensive Agents among 5,5-Dimethylhydantoin Derived α1-Adrenoceptors Antagonists” (International Journal of Molecular Sciences, 2023).
Structures can show the parent of a compound that is named as a salt.

Key:
[1] = target: α1-adrenoceptors (α1-ARs), rat cerebral cortex; experiment: Radioligand binding assay with [3H]-prazosin, affinity for α1-ARs; conditions: three independent experiments in duplicates, read-out: α1-adrenoceptor affinity Ki
Description: In the first step, all synthesized compounds (1–15) were tested in vitro for their affinity for α1-ARs on rat cerebral cortex by the radioligand binding assay using [^3H]-prazosin as a specific radioligand.
The affinity for α1-ARs was determined by radioligand binding assay on rat cerebral cortex using [3H]-prazosin as a specific radioligand. The brains were homogenized in 20 volumes of an ice-cold 50 mM Tris-HCl buffer (pH 7.6) and were centrifuged (MPW Med. Instruments, Warsaw, Poland) at 20,000× g for 20 min (0–4 °C). The cell pellet was resuspended in the Tris-HCl buffer and centrifuged again. Radioligand-binding assay was performed in plates (MultiScreen/Millipore, Burlington, MA, USA). The final incubation mixture (final volume 300 μL) consisted of 240 μL of the membrane suspension, 30 μL of [3H]-Prazosin (0.2 nM) solution, and 30 μL of the buffer containing seven to eight concentrations (10^−11 to 10^−4 M) of the tested compounds. For measuring the unspecific binding, phentolamine, 10 μM (in the case of [3H]-Prazosin) was applied. The incubation was terminated by rapid filtration over glass fiber filters (Whatman GF/C, Sigma-Aldrich) using a vacuum manifold (Millipore). The filters were then washed twice with the assay buffer and placed in scintillation vials with a liquid-scintillation cocktail. Radioactivity was measured in a WALLAC 1409 DSA liquid-scintillation counter (BioSurplus, San Diego, CA, USA).
(§1) All statistics were performed using GraphPad Prism, Version 6.0 (GraphPad Software, San Diego, CA, USA). In the radioligand binding study, data were analyzed by a one-site curve-fitting equation, and inhibition constants (Ki) values were calculated via the Cheng-Prusoff equation [63]. In functional studies, data were analyzed using a sigmoidal dose-response (variable slope) equation. Arterial blood pressure data were analyzed using a two-way ANOVA with Sidak’s post-hoc test for multiple comparisons. A p < 0.05 was considered statistically significant.

[2] = target: T1, human adrenergic receptor α1A (Homo sapiens, UniProt P35348); experiment: Intrinsic activity, aequorin luminescence functional assay at α1A-AR; format: cell-based; conditions: for α1A-AR Profile: agonist/antagonist profile; for IC50: cells expressing aequorin and human α1A, against phenylephrine, means of three independent experiments in duplicates; for Selectivity Ratio α1B/α1A: selectivity for α1A-AR (IC50(α1B-AR)/IC50(α1A-AR))
T1 sequence (P35348 1-466): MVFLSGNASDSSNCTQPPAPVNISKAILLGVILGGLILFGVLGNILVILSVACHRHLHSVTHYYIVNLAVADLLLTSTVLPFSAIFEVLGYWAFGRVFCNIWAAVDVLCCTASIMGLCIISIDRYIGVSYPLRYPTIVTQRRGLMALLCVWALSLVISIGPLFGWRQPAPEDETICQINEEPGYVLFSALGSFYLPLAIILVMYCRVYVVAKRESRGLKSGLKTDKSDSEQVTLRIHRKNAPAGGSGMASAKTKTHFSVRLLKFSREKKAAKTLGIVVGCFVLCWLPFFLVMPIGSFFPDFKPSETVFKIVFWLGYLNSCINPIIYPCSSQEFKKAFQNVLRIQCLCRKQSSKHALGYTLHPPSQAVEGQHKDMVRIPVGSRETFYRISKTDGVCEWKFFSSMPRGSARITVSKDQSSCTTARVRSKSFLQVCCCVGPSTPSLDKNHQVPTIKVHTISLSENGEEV
Description: (§2) The subtype selectivity for α1A and α1B was calculated as IC50(α1B-AR)/IC50(α1A-AR) and IC50(α1A-AR)/IC50(α1B-AR) ratio, respectively.
(§3) Intrinsic activity at the α1-AR subtypes studies were performed using the cells expressing mitochondrially-targeted aequorin and one of the human adrenergic receptor α1A or α1B (PerkinElmer, Boston, MA, USA), according to the manufacturer’s instructions. For measurement, frozen cells were thawed and re-suspended in 10 mL of assay buffer containing 5 μM “Coelenterazine h”. This cell suspension was put in a 10 mL Falcon tube, fixed onto a rotating heel, and incubated overnight at rt in the dark (8 rpm; 45° angle). Cells were diluted with Assay Buffer to 5000 cells/20 μL. […] The light emitted was recorded for 20 s. Cells with antagonists were incubated for 15 min at room temperature. […] Luminescence was measured using the multidetection microplate reader (POLARstar Omega, BMG LABTECH, Ortenberg, Germany).
as §1

[3] = target: T2, human adrenergic receptor α1B (Homo sapiens, UniProt P35368); experiment: Intrinsic activity, aequorin luminescence functional assay at α1B-AR; format: cell-based; conditions: for α1B-AR Profile: agonist/antagonist profile; for IC50: cells expressing aequorin and human α1B, against phenylephrine, means of three independent experiments in duplicates; for Selectivity Ratio α1A/α1B: selectivity for α1B-AR (IC50(α1A-AR)/IC50(α1B-AR))
T2 sequence (P35368 1-520): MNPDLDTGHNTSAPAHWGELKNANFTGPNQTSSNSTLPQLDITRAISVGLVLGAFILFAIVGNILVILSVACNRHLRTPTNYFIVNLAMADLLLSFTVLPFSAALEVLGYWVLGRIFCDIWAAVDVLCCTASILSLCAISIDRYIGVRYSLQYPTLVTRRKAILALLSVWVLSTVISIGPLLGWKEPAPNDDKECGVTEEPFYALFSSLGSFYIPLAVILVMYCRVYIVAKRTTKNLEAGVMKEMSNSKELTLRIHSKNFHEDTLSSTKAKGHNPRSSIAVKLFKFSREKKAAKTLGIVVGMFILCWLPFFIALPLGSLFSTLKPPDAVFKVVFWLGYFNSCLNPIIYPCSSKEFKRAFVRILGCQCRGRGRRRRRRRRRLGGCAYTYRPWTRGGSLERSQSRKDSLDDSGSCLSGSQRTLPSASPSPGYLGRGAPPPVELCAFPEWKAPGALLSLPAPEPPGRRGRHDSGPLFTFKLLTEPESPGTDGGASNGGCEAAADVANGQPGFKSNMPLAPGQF
Description: as §2, §3, §1

[4] = test system: arterial blood pressure of normotensive Wistar rats; experiment: Influence on blood pressure in normotensive anesthetized rats after i.v. administration; format: in vivo, rat; conditions: 2.0 mg/kg i.v., mean, n = 6
Description: In the next step, the hypotensive activity of novel compounds 1–3, 5–9, and 11–14 was determined after i.v. administration to normotensive anesthetized rats. All results are shown in Supplementary Table S1.
The normotensive rats were anesthetized with thiopental (75 mg/kg) by intraperitoneal injection (i.p.). The left carotid artery was cannulated with a polyethylene tub filled with heparin in saline to facilitate pressure measurements using a PowerLab Apparatus (ADInstruments, Sydney, Australia). Blood pressure was measured immediately before administration of the tested compounds or vehicle—time 0 min (initial blood pressure) and 60 min thereafter. Initial blood pressure before administration of the tested chemicals in all experimental groups was similar. The tested compounds were dissolved in a specific vehicle: ethyl alcohol 5% − kolliphor 5% − water 90%. All tested chemicals were administrated intravenously (i.v.) at a constant volume of 1 mL/kg after 20 min of stabilization period. The compounds were tested at a starting dose of 2 mg/kg. If the hypotensive activity was found, the dose was reduced by half. The dosing was continued until the hypotensive effects disappeared. Urapidil was used as a reference compound.
as §1

[5] = 0 min (initial, before administration)

**Q.** For `CC1(C)C(=O)N(Cc2ccc(Cl)cc2Cl)C(=O)N1CC(O)CN1CCN(C(c2ccccc2)c2ccccc2)CC1` (stereo not shown) [Compound 15], which Ki [1] is on record?
**A.** 2.44 µM

**Q.** With `COc1cc2nc(N3CCN(C(=O)C4CCCO4)CC3)nc(N)c2cc1OC` (stereo not shown) [Terazosin, terazosin hydrochloride, reference compound] as the molecule, how does the “α1A-AR Profile” value [2] read?
**A.** Antagonist

**Q.** What about the “α1B-AR Profile” value [3] of the same molecule?
**A.** Antagonist

**Q.** For `CC1(C)C(=O)N(Cc2ccc(Cl)cc2Cl)C(=O)N1CC(O)CN1CCN(c2ccc(F)cc2)CC1` (stereo not shown) [Compound 8], which Ki [1] is on record?
**A.** 0.044 µM

**Q.** And the “α1A-AR Profile” value [2]?
**A.** Antagonist

**Q.** And the IC50 [2]?
**A.** 0.817 µM

**Q.** And the “Selectivity Ratio α1B/α1A” value [2]?
**A.** 0.21

**Q.** What about the “α1B-AR Profile” value [3] of the same molecule?
**A.** Antagonist

**Q.** And the IC50 [3]?
**A.** 0.17 µM

**Q.** What about the “Selectivity Ratio α1A/α1B” value [3] of the same molecule?
**A.** 4.79

**Q.** And the Diastolic blood pressure [4, 5]?
**A.** 96.7

**Q.** And the Systolic blood pressure [4, 5]?
**A.** 129.2

**Q.** And the Diastolic blood pressure ([4]; 5 min)?
**A.** 87.8

**Q.** And the Systolic blood pressure ([4]; 5 min)?
**A.** 121.5

**Q.** And the Diastolic blood pressure ([4]; 10 min)?
**A.** 89.0

**Q.** What about the Systolic blood pressure ([4]; 10 min) of the same molecule?
**A.** 120.5

**Q.** What about the Diastolic blood pressure ([4]; 20 min) of the same molecule?
**A.** 88.2

**Q.** And the Systolic blood pressure ([4]; 20 min)?
**A.** 120.0

**Q.** And the Diastolic blood pressure ([4]; 30 min)?
**A.** 86.5

**Q.** And the Systolic blood pressure ([4]; 30 min)?
**A.** 120.2

**Q.** What about the Diastolic blood pressure ([4]; 40 min) of the same molecule?
**A.** 84.7

**Q.** What about the Systolic blood pressure ([4]; 40 min) of the same molecule?
**A.** 119.5

**Q.** What about the Diastolic blood pressure ([4]; 50 min) of the same molecule?
**A.** 85.5

**Q.** What about the Systolic blood pressure ([4]; 50 min) of the same molecule?
**A.** 120.0

**Q.** What about the Diastolic blood pressure ([4]; 60 min) of the same molecule?
**A.** 84.3

**Q.** What about the Systolic blood pressure ([4]; 60 min) of the same molecule?
**A.** 119.0

**Q.** Which Ki [1] does the source give for `CC1(C)C(=O)N(Cc2ccc(Cl)cc2Cl)C(=O)N1CC(O)CN1CCN(c2ccc(Cl)c(Cl)c2)CC1.Cl` (stereo not shown) [Compound 10, 3-(2,4-dichlorobenzyl)-1-(3-(4-(3,4-dichlorophenyl)piperazin-1-yl)-2-hydroxypropyl)-5,5-dimethylimidazolidine-2,4-dione hydrochloride] here?
**A.** 0.778 µM

**Q.** What about the melting point of the same molecule?
**A.** 223 to 225 °C

**Q.** What does the source list for `CC1(C)C(=O)N(Cc2ccc(Cl)cc2Cl)C(=O)N1CC(O)CN1CCN(c2ccc(F)cc2F)CC1` (stereo not shown) [Compound 9]?
**A.** Ki [1]: 0.042 µM; α1A-AR Profile [2]: Antagonist; IC50 [2]: 0.162 µM; Selectivity Ratio α1B/α1A [2]: 0.91; α1B-AR Profile [3]: Antagonist; IC50 [3]: 0.147 µM; Selectivity Ratio α1A/α1B [3]: 1.10; Diastolic blood pressure [4, 5]: 100.3; Systolic blood pressure [4, 5]: 135.2; Diastolic blood pressure ([4]; 5 min): 98.2; Systolic blood pressure ([4]; 5 min): 133.3; Diastolic blood pressure ([4]; 10 min): 93.5; Systolic blood pressure ([4]; 10 min): 127.0; Diastolic blood pressure ([4]; 20 min): 90.8; Systolic blood pressure ([4]; 20 min): 125.0; Diastolic blood pressure ([4]; 30 min): 93.2; Systolic blood pressure ([4]; 30 min): 128.2; Diastolic blood pressure ([4]; 40 min): 92.0; Systolic blood pressure ([4]; 40 min): 128.2; Diastolic blood pressure ([4]; 50 min): 90.3; Systolic blood pressure ([4]; 50 min): 127.2; Diastolic blood pressure ([4]; 60 min): 87.3; Systolic blood pressure ([4]; 60 min): 122.0

**Q.** Which results are given for `CCOc1ccccc1OCCN[C@H](C)Cc1ccc(OC)c(S(N)(=O)=O)c1` [Tamsulosin, tamsulosin hydrochloride, reference compound]?
**A.** α1A-AR Profile [2]: Antagonist; α1B-AR Profile [3]: Antagonist; IC50 [3]: 0.00048 µM

**Q.** Which results are given for `CNC[C@H](O)c1cccc(O)c1` [Phenylephrine, phenylephrine, reference compound]?
**A.** α1A-AR Profile [2]: Agonist; α1B-AR Profile [3]: Agonist

**Q.** What does the source list for `CC1(C)C(=O)N(Cc2ccc(Cl)cc2Cl)C(=O)N1CC(O)CN1CCN(c2ccccc2F)CC1` (stereo not shown) [Compound 7]?
**A.** Ki [1]: 0.1 µM; α1A-AR Profile [2]: Antagonist; IC50 [2]: 1.41 µM; Selectivity Ratio α1B/α1A [2]: 0.34; α1B-AR Profile [3]: Antagonist; IC50 [3]: 0.484 µM; Selectivity Ratio α1A/α1B [3]: 2.92; Diastolic blood pressure [4, 5]: 103.2; Systolic blood pressure [4, 5]: 137.8; Diastolic blood pressure ([4]; 5 min): 91.5; Systolic blood pressure ([4]; 5 min): 125.3; Diastolic blood pressure ([4]; 10 min): 91.0; Systolic blood pressure ([4]; 10 min): 124.3; Diastolic blood pressure ([4]; 20 min): 93.0; Systolic blood pressure ([4]; 20 min): 121.8; Diastolic blood pressure ([4]; 30 min): 92.0; Systolic blood pressure ([4]; 30 min): 123.8; Diastolic blood pressure ([4]; 40 min): 94.3; Systolic blood pressure ([4]; 40 min): 123.7; Diastolic blood pressure ([4]; 50 min): 93.2; Systolic blood pressure ([4]; 50 min): 122.7; Diastolic blood pressure ([4]; 60 min): 91.3; Systolic blood pressure ([4]; 60 min): 121.5
